Measurements taken from ChEMBL document CHEMBL2424589, “Novel hydroxyl tricyclics (e.g., GSK966587) as potent inhibitors of bacterial type IIA topoisomerases” (Bioorg Med Chem Lett, 2013).
Values after ≈ are worked out from the molar mass of the structure shown.

Key:
[1] = Inhibition of DNA gyrase-dependent DNA replication in toluenized-Haemophilus influenzae cells assessed as ATP-dependent [33P]-TTP incorporation after 30 mins by scintillation proximity assay; conditions: 0.5 h
Canis familiaris [2] = organism: Canis familiaris; assay: Toxicity in dog assessed as hepatic portal tract lesions measured for 14 days by GLP assay; type: organism-based, Canis lupus familiaris; conditions: in vivo, 336 h
Haemophilus influenzae = assay: Antibacterial activity against Haemophilus influenzae H128 assessed as growth inhibition after 18 to 24 hrs by broth microdilution method; type: functional
Streptococcus pneumoniae [3] = assay: Antibacterial activity against Streptococcus pneumoniae 1629 assessed as growth inhibition after 18 to 24 hrs by broth microdilution method; type: functional
Staphylococcus aureus = assay: Antibacterial activity against Staphylococcus aureus WCUH-29 assessed as growth inhibition after 18 to 24 hrs by broth microdilution method; type: functional
Streptococcus pneumoniae [4] = assay: Antibacterial activity against Streptococcus pneumoniae 1629 infected in nonneutropenic mouse assessed as reduction in bacterial burden in lungs at 100 mg/kg, po bid after 48 hrs; type: functional, Lung
Liver = assay: Intrinsic clearance in dog liver microsomes; type: ADME, Canis lupus familiaris, Microsome
[5] = Volume of distribution at steady state in cynomolgus monkey at 3 mg/kg, iv; type: ADME, organism-based, Macaca fascicularis; parameters: dose 3 mg/kg, route intravenous; conditions: in vivo, read-out: Vdss
[6] = Cmax in nonneutropenic mouse infected with Streptococcus pneumoniae 1629 at 50 mg/kg, po bid; type: ADME, organism-based; parameters: dose 50 mg/kg, route oral; conditions: in vivo
[7] = target: T1, Voltage-gated inwardly rectifying potassium channel KCNH2 (Homo sapiens, UniProt Q12809); assay: Inhibition of human ERG transfected in HEK293 cells by patch clamp assay; type: cell-based
T1 sequence (Q12809 whole entry): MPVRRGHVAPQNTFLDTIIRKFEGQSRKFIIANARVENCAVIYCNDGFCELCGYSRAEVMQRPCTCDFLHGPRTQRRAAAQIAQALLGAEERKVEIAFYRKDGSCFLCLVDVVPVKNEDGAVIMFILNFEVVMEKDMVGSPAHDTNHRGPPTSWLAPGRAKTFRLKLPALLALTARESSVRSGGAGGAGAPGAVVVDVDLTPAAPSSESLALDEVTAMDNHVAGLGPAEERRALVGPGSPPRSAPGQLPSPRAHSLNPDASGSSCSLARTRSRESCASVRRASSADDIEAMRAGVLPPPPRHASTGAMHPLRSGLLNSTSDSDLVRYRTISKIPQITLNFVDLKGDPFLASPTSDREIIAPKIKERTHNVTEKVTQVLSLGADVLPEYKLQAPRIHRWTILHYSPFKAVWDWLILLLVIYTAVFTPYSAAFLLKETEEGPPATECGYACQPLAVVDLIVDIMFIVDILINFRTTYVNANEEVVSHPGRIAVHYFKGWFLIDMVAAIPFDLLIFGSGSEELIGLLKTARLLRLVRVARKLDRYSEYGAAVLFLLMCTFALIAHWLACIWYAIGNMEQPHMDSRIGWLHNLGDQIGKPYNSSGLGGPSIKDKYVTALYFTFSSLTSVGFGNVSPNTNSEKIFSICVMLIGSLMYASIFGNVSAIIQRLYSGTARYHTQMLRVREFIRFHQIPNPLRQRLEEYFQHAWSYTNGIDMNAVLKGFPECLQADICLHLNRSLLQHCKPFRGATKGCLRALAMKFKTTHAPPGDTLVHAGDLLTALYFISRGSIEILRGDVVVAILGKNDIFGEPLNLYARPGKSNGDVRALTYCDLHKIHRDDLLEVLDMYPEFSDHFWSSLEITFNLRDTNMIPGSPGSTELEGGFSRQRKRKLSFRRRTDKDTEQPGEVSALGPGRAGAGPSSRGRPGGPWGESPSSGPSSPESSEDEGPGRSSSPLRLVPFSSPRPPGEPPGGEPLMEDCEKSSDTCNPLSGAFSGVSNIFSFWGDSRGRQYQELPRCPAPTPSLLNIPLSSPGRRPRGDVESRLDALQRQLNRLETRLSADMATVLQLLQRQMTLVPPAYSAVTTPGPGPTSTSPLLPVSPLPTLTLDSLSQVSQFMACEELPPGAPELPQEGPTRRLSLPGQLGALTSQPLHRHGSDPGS

[8] = Oral bioavailability in Beagle dog at 5 mg/kg; type: ADME, organism-based, Canis lupus familiaris; conditions: in vivo
[9] = target: T1, Voltage-gated inwardly rectifying potassium channel KCNH2; assay: Inhibition of human ERG by patch clamp assay
[10] = Plasma protein binding in monkey; type: ADME, cell-free, Macaca mulatta; conditions: rhesus monkey, read-out: PPB (converted)
[11] = Clearance in Sprague-Dawley rat at 3 mg/kg, iv; type: ADME, organism-based; parameters: dose 3 mg/kg, route intravenous; conditions: in vivo
Cynomolgus monkey [12] = assay: Renal clerance in cynomolgus monkey relative to total clearance; type: ADME, organism-based, Macaca fascicularis, Kidney; conditions: in vivo
[13] = Plasma protein binding in dog; type: ADME, cell-free, Canis lupus familiaris; conditions: read-out: PPB (converted)
[14] = Half life in Sprague-Dawley rat at 3 mg/kg, iv; type: ADME, organism-based; parameters: dose 3 mg/kg, route intravenous; conditions: in vivo
[15] = Clearance in Beagle dog at 3 mg/kg, iv; type: ADME, organism-based, Canis lupus familiaris; parameters: dose 3 mg/kg, route intravenous; conditions: in vivo
[16] = AUC in Sprague-Dawley rat at 5 mg/kg, po; type: ADME, organism-based; parameters: dose 5 mg/kg, route oral; conditions: plasma
[17] = Clearance in cynomolgus monkey at 3 mg/kg, iv; type: ADME, organism-based, Macaca fascicularis; parameters: dose 3 mg/kg, route intravenous; conditions: in vivo
[18] = Half life in cynomolgus monkey at 3 mg/kg, iv; type: ADME, organism-based, Macaca fascicularis; parameters: dose 3 mg/kg, route intravenous; conditions: in vivo
[19] = AUC in cynomolgus monkey at 5 mg/kg, po; type: ADME, organism-based, Macaca fascicularis; parameters: dose 5 mg/kg, route oral; conditions: plasma
[20] = Plasma protein binding in human; type: ADME, cell-free; conditions: read-out: PPB (converted)
Canis familiaris [21] = organism: Canis familiaris; assay: Renal clerance in Beagle dog relative to total clearance; type: ADME, organism-based, Canis lupus familiaris, Kidney; conditions: in vivo
[22] = Volume of distribution at steady state in Beagle dog at 3 mg/kg, iv; type: ADME, organism-based, Canis lupus familiaris; parameters: dose 3 mg/kg, route intravenous; conditions: in vivo, read-out: Vdss
Canis familiaris [23] = organism: Canis familiaris; assay: Blood clerance in Beagle dog relative to hepatic blood flow; type: ADME, organism-based, Canis lupus familiaris; conditions: in vivo
[24] = AUC in Beagle dog at 5 mg/kg, po; type: ADME, organism-based, Canis lupus familiaris; parameters: dose 5 mg/kg, route oral; conditions: plasma
[25] = Intrinsic clearance in monkey liver microsomes; type: ADME, Macaca mulatta, Microsome; conditions: rhesus monkey
[26] = Oral bioavailability in cynomolgus monkey at 5 mg/kg; type: ADME, organism-based, Macaca fascicularis; conditions: in vivo
[27] = Plasma protein binding in rat; type: ADME, cell-free; conditions: read-out: PPB (converted)
[28] = Volume of distribution at steady state in Sprague-Dawley rat at 3 mg/kg, iv; type: ADME, organism-based; parameters: dose 3 mg/kg, route intravenous; conditions: in vivo, read-out: Vdss
[29] = Oral bioavailability in Sprague-Dawley rat at 5 mg/kg; type: ADME, organism-based; conditions: in vivo
Streptococcus pneumoniae [30] = assay: Antibacterial activity against Streptococcus pneumoniae 1629 infected in nonneutropenic mouse assessed as reduction in bacterial burden in lungs at 50 mg/kg, po bid after 48 hrs relative to 1 hr nontreated control; type: functional, Lung
[31] = Half life in Beagle dog at 3 mg/kg, iv; type: ADME, organism-based, Canis lupus familiaris; parameters: dose 3 mg/kg, route intravenous; conditions: in vivo
Liver microsomes = assay: Intrinsic clearance in human liver microsomes; type: ADME, Microsome
Cynomolgus monkey [32] = assay: Blood clerance in cynomolgus monkey relative to hepatic blood flow; type: ADME, organism-based, Macaca fascicularis; conditions: in vivo
[33] = AUC in nonneutropenic mouse infected with Streptococcus pneumoniae 1629 at 50 mg/kg, po bid measured per day; type: ADME, organism-based; parameters: dose 50 mg/kg, route oral; conditions: plasma
Rattus norvegicus = organism: Rattus norvegicus; assay: Blood clerance in Sprague-Dawley rat relative to hepatic blood flow; type: ADME, organism-based; conditions: in vivo

O=c1ccc2ncc(F)c3c2n1C[C@@]3(F)CN1CCC(NCc2cc3c(cn2)OCCO3)CC1
IC50 [1]: 0.04 µg/mL (≈ 0.0852 µM) | Activity (Canis familiaris [2]): Non-toxic | MIC (Haemophilus influenzae): 0.5 µg/mL (≈ 1.06 µM) | MIC (Streptococcus pneumoniae [3]): 0.06 µg/mL (≈ 0.128 µM) | MIC (Staphylococcus aureus): 0.03 µg/mL (≈ 0.0639 µM)

O=c1ccc2ncc(F)c3c2n1C[C@]3(O)CN1CCC(NCc2cc3c(cn2)OCCO3)CC1
IC50 [1]: > 1.32 µg/mL | Activity (Canis familiaris [2]): Non-toxic | MIC (Haemophilus influenzae): > 16 µg/mL | MIC (Streptococcus pneumoniae [3]): 4 µg/mL (≈ 8.56 µM) | MIC (Staphylococcus aureus): 8 µg/mL (≈ 17.1 µM)

O=c1ccc2ncc(F)c3c2n1C[C@@]3(O)CN1CCC(NCc2cc3c(cn2)OCCO3)CC1
log10cfu (Streptococcus pneumoniae [4]): 1.7 | CLH (Liver): < 0.5 mL/min/g | IC50 [1]: 0.035 µg/mL (≈ 0.0749 µM) | Vd [5]: 3.4 L/kg | Activity (Canis familiaris [2]): Toxic | Cmax [6]: 8000 ng/mL | IC50 [7]: 310 µM | bioavailability [8]: 63% | IC50 [9]: 239 µM | MIC (Haemophilus influenzae): 1 µg/mL (≈ 2.14 µM) | fraction unbound [10]: 0.781 | clearance [11]: 62.2 mL/min/kg | CL (Cynomolgus monkey [12]): 15% | fraction unbound [13]: 0.823 | half-life [14]: 3.1 h | clearance [15]: 18.1 mL/min/kg | AUC [16]: 460 ng·h/mL | clearance [17]: 25.1 mL/min/kg | half-life [18]: 2.3 h | AUC [19]: 1920 ng·h/mL | fraction unbound [20]: 0.777 | MIC (Streptococcus pneumoniae [3]): 0.125 µg/mL (≈ 0.267 µM) | CL (Canis familiaris [21]): 27% | Vd [22]: 6.4 L/kg | CL (Canis familiaris [23]): 50% | AUC [24]: 2820 ng·h/mL | MIC (Staphylococcus aureus): 0.125 µg/mL (≈ 0.267 µM) | CLH [25]: 1.6 mL/min/g | bioavailability [26]: 55% | fraction unbound [27]: 0.577 | Vd [28]: 8.6 L/kg | bioavailability [29]: 34% | log10cfu (Streptococcus pneumoniae [30]): 2 | half-life [31]: 7.1 h | CLH (Liver microsomes): < 0.5 mL/min/g | CL (Cynomolgus monkey [32]): 50% | AUC [33]: 50000 ng·h/mL | CL (Rattus norvegicus): 100%

O=c1c(F)cc2ncc(F)c3c2n1C[C@@]3(O)CN1CCC(NCc2cc3c(cn2)OCCO3)CC1
IC50 [1]: 0.037 µg/mL (≈ 0.0762 µM) | Activity (Canis familiaris [2]): Non-toxic | IC50 [9]: 289 µM | MIC (Haemophilus influenzae): 0.5 µg/mL (≈ 1.03 µM) | MIC (Streptococcus pneumoniae [3]): 0.25 µg/mL (≈ 0.515 µM) | MIC (Staphylococcus aureus): 0.25 µg/mL (≈ 0.515 µM)

O=c1ccc2ncc(F)c3c2n1C[C@@]3(O)CN1CCC[C@@H](CNCc2cc3c(cn2)OCCO3)C1
IC50 [1]: 1.21 µg/mL (≈ 2.52 µM) | Activity (Canis familiaris [2]): Non-toxic | MIC (Haemophilus influenzae): 16 µg/mL (≈ 33.2 µM) | MIC (Streptococcus pneumoniae [3]): 4 µg/mL (≈ 8.31 µM) | MIC (Staphylococcus aureus): 4 µg/mL (≈ 8.31 µM)

O=c1ccc2ncc(F)c3c2n1C[C@@]3(O)CN1CCO[C@@H](CNCc2cc3c(cn2)OCCO3)C1
IC50 [1]: 0.361 µg/mL (≈ 0.747 µM) | Activity (Canis familiaris [2]): Non-toxic | MIC (Haemophilus influenzae): 4 µg/mL (≈ 8.27 µM) | MIC (Streptococcus pneumoniae [3]): 4 µg/mL (≈ 8.27 µM) | MIC (Staphylococcus aureus): > 16 µg/mL

O=c1cnc2ccc(F)c3c2n1C[C@@]3(O)CN1CCC(NCc2cc3c(cn2)OCCO3)CC1
IC50 [1]: 0.058 µg/mL (≈ 0.124 µM) | Activity (Canis familiaris [2]): Non-toxic | IC50 [7]: 206 µM | IC50 [9]: 101 µM | MIC (Haemophilus influenzae): 0.5 µg/mL (≈ 1.07 µM) | MIC (Streptococcus pneumoniae [3]): 0.125 µg/mL (≈ 0.267 µM) | MIC (Staphylococcus aureus): 0.125 µg/mL (≈ 0.267 µM)

O=c1ccc2ncc(F)c3c2n1C[C@H]3CN1CCC(NCc2cc3c(cn2)OCCO3)CC1
IC50 [1]: 0.035 µg/mL (≈ 0.0775 µM) | Activity (Canis familiaris [2]): Non-toxic | IC50 [7]: 122 µM | IC50 [9]: 58 µM | MIC (Haemophilus influenzae): 0.25 µg/mL (≈ 0.554 µM) | MIC (Streptococcus pneumoniae [3]): 0.06 µg/mL (≈ 0.133 µM) | MIC (Staphylococcus aureus): 0.03 µg/mL (≈ 0.0664 µM)

O=c1ccc2ccc(F)c3c2n1C[C@@]3(O)CN1CCC(NCc2cc3c(cn2)OCCO3)CC1
IC50 [1]: 0.071 µg/mL (≈ 0.152 µM) | Activity (Canis familiaris [2]): Non-toxic | MIC (Haemophilus influenzae): 1 µg/mL (≈ 2.14 µM) | MIC (Streptococcus pneumoniae [3]): 0.125 µg/mL (≈ 0.268 µM) | MIC (Staphylococcus aureus): 0.06 µg/mL (≈ 0.129 µM)
